Where a name gives a salt, the structure may show the parent alone. Read-outs that look alike come from different tables or passages of the source.
Key:
[1] = Thermogravimetric analysis (TGA), decomposition temperature; assay type: physicochemical
Protocol: Melting points of all purchased materials were determined in a capillary tube using a MeI-Temp apparatus (Barnstead/Thermo Scientific). NMR data sets were collected on a 300 MHz Bruker instrument using sample concentrations of 50 mM. Infrared spectra were measured using an Avatar 360 FT-IR ESP (ThermoElectron-Nicolet, Waltham, Mass.) equipped with a Smart DuraSampllR horizontal attenuated total reflectance (HATR) accessory. Raman spectra were measured using a Thermo-Nicolet 470 FTIR with Nd:YAG laser excitation and HgCdTe detector. Viscosity was measured on 1 mL samples with a Viscolab 3000 viscometer (Cambridge Viscosity, Medford, Mass.). Samples were heated to 90° C., except when otherwise specified, and viscosity was recorded in 2 degree increments between 50 and 90° C. with 8 min equilibration at each temperature. Thermal characterization was carried out using a Q100 DSC and a Q500 TGA (both from TA Instruments, New Castle, Del.). DSC was performed using a 5-10 mg sample in a 40 μL aluminum crucible sealed in the glovebox. A temperature range from −60 to 150° C. was scanned twice, at ramp rates of 5° C./min and 10° C./min. TGA was performed under N2 atmosphere over a temperature range from 25-800° C. with a ramp rate of 20° C. per minute and a sample size of 10 mg.

[2] = Solubility at 1 mM in unbuffered water by eye and UV-Vis after filtration; conditions: for A268 of the filtrate: 0.45 μm syringe filter
Protocol: Solubility of phenoxybenzamine hydrochloride and phenoxybenzamine-HCl—(ZnCl2)2 at 1 mM in unbuffered water (pH 6.5) was evaluated by eye and by UV-Vis spectroscopy after filtration through a 0.45 μm syringe filter.

[3] = Shelf life estimate by model-free isoconversional kinetic analysis of TGA data; assay type: physicochemical
Protocol: Zinc(II) chloride (273 mg, 2 mmol) was added to a scintillation vial that had been heated, then cooled under vacuum and charged with dry argon. Phenoxybenzamine hydrochloride (340.3 mg, 1 mmol) was added to the vial with a stir bar and the mixture was degassed with stirring at 60° C. The vial was filled with argon, sealed with a cap, and stirred for 24 h at 80° C. to produce a clear, colorless glass. […] NMR spectra for ^1H and ^13C were obtained in d6-acetone. […] Spectra of phenoxybenzamine-HCl were performed with 0, 0.25, 0.5, 1.0, 1.5, 2.0, and 5.0 molar equivalents of ZnCl2 to observe this effect. Thermal decomposition after a 3 h incubation of the IL at a constant 120° C. was 2.7% of the starting mass. In contrast, the phenoxybenzamine hydrochloride starting material loses 38% of its mass after a similar incubation. The IL was soluble (>1 mM) in acetone, water and phosphate buffered to pH 6.0. The IL was insoluble (<1 mM) in toluene and tetrahydrofuran. […] Model-free isoconversional kinetic analysis (for more detail, see: Doyle, C. D., J. Appl. Polym. Sci. 1962, 6:639-642; and Long, G. T. et al., J. Pharm. Sci. 2002, 91:800-809) of TGA data was used to estimate increases in shelf life due to IL formulation for phenoxybenzamine hydrochloride and phenoxybenzamine-HCl—(ZnCl2)2. The onset of mass loss indicates loss of HCl during cyclization of the 2-chloroethylamine group, the most common decomposition pathway for phenoxybenzamine hydrochloride (for more detail, see: Adams, W. P. et al., Int. J. Pharm. 1985, 25:293-312). Formulation as an ionic liquid improves the shelf life (time to reach 5% decomposition) of solid phenoxybenzamine hydrochloride at 20° C. by 7.7-fold to 15.8 years. […] The manufacturer's shelf life for 10 mg phenoxybenzamine hydrochloride tablets is 2 years, or 730 days, and the calculated value for solid phenoxybenzamine hydrochloride (5% decay at 20° C.) was 750 days (2.05 years), indicating good agreement of the calculation with actual shelf life. The most common decomposition pathway for phenoxybenzamine hydrochloride is loss of hydrochloride during cyclization of the 2-chloroethylamine group (for more detail, see: Adams, W. P. et al., Int. J. Pharm. 1985, 25:293-312) and we expect this is the earliest mass loss observed by TGA. The IL phenoxybenzamine-HCl—(ZnCl2)2 is a stabilized, amorphous formulation with shelf life greater than that of the most common crystalline form.

[4] = Solubility of the IL in solvents
[5] = Storage under Ar, observed over 6 months for crystalline domains; assay type: physicochemical; conditions: stored under Ar
[6] = system: Pseudomonas aeruginosa biofilms; experiment: Challenge of established biofilms with test compounds, CFU count; assay type: cell-based; conditions: 72 h biofilm, 6 h challenge
Pseudomonas aeruginosa = experiment: Biofilm growth on IL-coated culture plates; assay type: cell-based; conditions: wells coated with 100 uL IL, 72 h
Protocol: (§1) A second example of clear, colorless antimicrobial films formed by compositions described herein was shown with an assay that involved coating culture plates with IL and observing the biofilm growth on the coated surface. […] Aliquots of 100 μL of either a Staphylococcus aureus culture, an E. coli culture, or a Pseudomonas aeruginosa culture were added to each coated well, the plate was fed with fresh media every 24 h, and cells were counted after 72 h, as described above. The number of cells in the treated wells was below the limit of detection of the assay of 1000 cfu/mL, as compared with normal cell counts for the LB control wells, indicating high antimicrobial efficacy of the IL coating. Because bacteria colonize a surface prior to barnacles and other organisms, proof of antibacterial effects is key to showing anti-biofouling potential in aquatic environments.

Staphylococcus aureus = experiment: Biofilm growth on IL-coated culture plates; assay type: cell-based; conditions: wells coated with 100 uL IL, 72 h
Protocol: as §1

E. coli = experiment: Biofilm growth on IL-coated culture plates; assay type: cell-based; conditions: wells coated with 100 uL IL, 72 h
Protocol: as §1

[7] = assay type: physicochemical; conditions: 3 h incubation at constant 120° C.
[8] = TGA under N2, ramp 20° C. per minute
[9] = 1 mM in unbuffered water (pH 6.5)
[10] = solid, 20° C., calculated from TGA kinetics

For CC(COc1ccccc1)N(CCCl)Cc1ccccc1.Cl.[Cl][Zn][Cl].[Cl][Zn][Cl] (stereo not shown) [Phenoxybenzamine-HCl—(ZnCl2)2], the “ΔTdec (increase in decomposition temperature relative to HCl starting material)” value [1] was “+45.1 °C”, the “Tdec (decomposition temperature)” value [1, 8] was 259.0 °C and the “Solubility evaluated by eye” value ([2]; 1 mM (0.34 mg/mL) in unbuffered water (pH 6.5)) was “completely dissolve”. The “A268 of the filtrate relative to phenoxybenzamine hydrochloride solution” value [2, 9] was 5 ×, the “A268 of the filtrate” value [2, 9] was 1.56 and the “Improvement of shelf life over standard formulation in syrup and propylene glycol (4-day refrigerator shelf life)” value [3] was 1500 fold. For the same compound, the “Improvement of shelf life over solid phenoxybenzamine hydrochloride” value ([3]; 20° C., time to 5% decomposition) was 7.7 fold, the “Shelf life (time to reach 5% decomposition)” value [3, 10] was 15.8 years and the Solubility ([4]; acetone) was greater than 1000 µM. The Solubility ([4]; phosphate buffered to pH 6.0) was greater than 1000 µM, the Solubility ([4]; tetrahydrofuran) was less than 1000 µM and the Solubility ([4]; toluene) was less than 1000 µM. For the same compound, the Solubility ([4]; water) was greater than 1000 µM and the “Appearance of crystalline domains on storage” value (“Appearance” for short) [5] was “no crystalline domains appeared”.
For CCCC[N+]1(C)CCCC1.O=S(=O)([N-]S(=O)(=O)C(F)(F)F)C(F)(F)F [BMP-NTf2, 1-butyl-1-methypyrrolidinium bistriflimide], the “Cell count remaining in biofilm” value ([6]; neat) was 2×10^5.
With CNC(=C[N+](=O)[O-])NCCSCc1ccc(CN(C)C)o1.Cl.[Cl][Zn][Cl].[Cl][Zn][Cl] the “ΔTdec (increase in decomposition temperature relative to HCl starting material)” value [1] was “+14.1 °C”, the Solubility ([4]; acetone) was greater than 1000 µM and the “Appearance” value [5] was “no crystalline domains appeared”.
In the case of [Cl-].[Na+] [NaCl], the “Cell count remaining in biofilm” value ([6]; 5 M in LB) is reported as 1×10^6 cells.
For CC(C)(C)CC(C)(C)c1ccc(OCCOCC[N+](C)(C)Cc2ccccc2)cc1 [Benzethonium-Cl—(ZnCl2)2], the “Number of cells in treated wells” value (Pseudomonas aeruginosa) was less than 1000 cfu/mL, the “Number of cells in treated wells” value (Staphylococcus aureus) was less than 1000 cfu/mL and the “Number of cells in treated wells” value (E. coli) was less than 1000 cfu/mL.
For Procainamide-HCl—(ZnCl2)2, the “Appearance” value [5] was “no crystalline domains appeared”.
For CC(COc1ccccc1)N(CCCl)Cc1ccccc1 (stereo not shown) [phenoxybenzamine hydrochloride, reference compound], the “Thermal decomposition, % of the starting mass lost” value [7] was 38%, the “A268 of the filtrate” value [2, 9] was 0.30 and the “Shelf life (5% decay)” value [3, 10] was 750 days. The “Shelf life (time to reach 5% decomposition)” value [3, 10] was 2.05 years.
In the case of CN(C)CCCN1c2ccccc2CCc2ccccc21.Cl.[Cl][Zn][Cl].[Cl][Zn][Cl] [Imipramine-HCl—(ZnCl2)2], the “ΔTdec (increase in decomposition temperature relative to HCl starting material)” value [1] is reported as “+21.4 °C”, the “Tdec (decomposition temperature)” value [1, 8] is reported as 267.2 °C and the “Appearance” value [5] is reported as “no crystalline domains appeared”.
With CN1[C@@H]2CC[C@H]1CC(OC(=O)C(O)c1ccccc1)C2 (stereo partly shown) [Homatropine-HCl—(ZnCl2)2] the “Tdec (decomposition temperature)” value [1] was 274.5 °C, the “ΔTdec (increase in decomposition temperature relative to HCl starting material)” value [1] was “+7.8 °C” and the “Appearance” value [5] was “no crystalline domains appeared”.
For Ethambutol-(HCl)2—(ZnCl2)2, the “Tdec (decomposition temperature)” value [1, 8] was 216.5 °C and the “Appearance” value [5] was “no crystalline domains appeared”.
For [Cl-].[Cl-].[Zn+2] [ZnCl2, Zinc(II) chloride], the “Cell count remaining in biofilm” value ([6]; 1.8 M in LB) was 4×10^5.
For CC(C)(C)CC(C)(C)c1ccc(OCCOCC[N+](C)(C)Cc2ccccc2)cc1 [benzethonium chloride], the “Viable dispersed cell count (conservative estimate, some exposures)” value ([6]; 78 mM in LB, precipitate impeded quantification) was 5×10^4 cfu/mL.

From patent US20130252818A1, “AMORPHOUS BIOINORGANIC IONIC LIQUID COMPOSITIONS COMPRISING AGRICULTURAL SUBSTANCES” (priority 2012, published 2013)
